According to patent US20140275049A1, “SUBSTITUTED PYRAZOLE ANALOGS As RAR ANTAGONISTS” (Eli Lilly and Company, priority 2011, published 2014):
pKi: −log10 of the molar value.

Assays:
RARα = target: T1, RARα (Homo sapiens, UniProt P10276); experiment: RARα binding assay (SPA, 3H-TTNPB competition); conditions: RARα/RXRα heterodimer
T1 construct: made in house; host or cells: baculovirus expression system
T1 sequence (P10276 1-462): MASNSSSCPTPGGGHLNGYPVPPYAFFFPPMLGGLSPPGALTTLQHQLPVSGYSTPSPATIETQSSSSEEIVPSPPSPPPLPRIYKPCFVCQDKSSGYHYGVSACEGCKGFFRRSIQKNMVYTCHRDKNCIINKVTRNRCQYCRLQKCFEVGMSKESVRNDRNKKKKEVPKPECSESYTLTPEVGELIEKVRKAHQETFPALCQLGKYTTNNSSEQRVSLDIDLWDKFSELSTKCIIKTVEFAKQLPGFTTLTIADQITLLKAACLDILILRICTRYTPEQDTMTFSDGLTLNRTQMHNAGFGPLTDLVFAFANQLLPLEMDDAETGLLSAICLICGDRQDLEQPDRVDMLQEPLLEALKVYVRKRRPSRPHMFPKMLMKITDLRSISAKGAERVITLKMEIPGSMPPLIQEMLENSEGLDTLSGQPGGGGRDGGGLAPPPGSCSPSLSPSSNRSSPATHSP
T1 sequence (P19793 1-462 partner): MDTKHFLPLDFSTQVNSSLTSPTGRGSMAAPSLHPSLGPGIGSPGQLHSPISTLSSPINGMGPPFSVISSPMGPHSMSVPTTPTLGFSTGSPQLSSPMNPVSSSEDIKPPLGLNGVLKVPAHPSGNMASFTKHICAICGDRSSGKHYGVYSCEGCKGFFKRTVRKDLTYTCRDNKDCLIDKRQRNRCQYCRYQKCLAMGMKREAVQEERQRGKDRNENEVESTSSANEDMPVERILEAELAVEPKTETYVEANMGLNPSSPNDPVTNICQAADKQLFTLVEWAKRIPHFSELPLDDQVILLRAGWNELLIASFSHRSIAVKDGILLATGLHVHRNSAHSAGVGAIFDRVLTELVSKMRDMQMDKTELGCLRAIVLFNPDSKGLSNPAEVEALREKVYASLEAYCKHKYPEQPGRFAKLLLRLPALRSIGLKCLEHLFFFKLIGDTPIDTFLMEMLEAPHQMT
Excerpt: (§1) Compounds can be evaluated for binding to RARα, β and γ by measuring their ability to competitively bind to the RAR receptors when dimerized with the binding partner RXRα. Competitive binding assays may be carried out by Scintillation Proximity Assay (SPA) technology using the RARα, β or γ heterodimer (with RXRα as a partner with all the RARs) receptors prepared in a baculovirus expression system. Use the biotinylated oligonucleotide: 5′-[…]-3′ for binding of receptor to yttrium silicate streptavidin-coated SPA beads. Per well, preincubate […] with 82.7 μg SPA beads in a binding buffer containing 10 mM HEPES pH 7.8, 80 mM KCl, 0.5 mM MgCl2, 1 mM DTT, 0.5% CHAPS and 16.6 μg bovine serum albumin for 30 min at room temperature. Then spin the mixture at 2,000 rpm for 3 min to pelletize the beads-oligo mix. Remove the supernatant and resuspend the beads-oligo pellet in the same binding buffer as above, but which in addition now also contain 14% glycerol, 5 μg of sheared salmon sperm DNA, 0.5 μg of RARα, 1.0 μg of RARβ, or 0.25 μg of RARγ receptor, respectively. Carry out the binding assays in the presence of ˜11.3 μCi of ^3H 4-[(E)-2-(5,6,7,8-tetrahydro-5,5,8,8-tetramethyl-2-naphthalenyl)-1-propenyl]benzoic acid (TTNPB), and multiple concentrations of test compound ranging from (5 nM to 10 μM). Non-specific binding may be determined in the presence of 1 μM unlabeled TTNPB. Use the data to calculate an IC50 for compounds after fitting the dose-response curves to a 4-parameter logistic fit. Use the Cheng-Prusoff equation to convert IC50 (nM) values for compounds to Ki, and the Kd may be determined by saturation binding.

RARβ = target: T2, RARβ (Homo sapiens, UniProt P10826); experiment: RARβ binding assay (SPA, 3H-TTNPB competition); conditions: RARβ/RXRα heterodimer
T2 construct: made in house; host or cells: baculovirus expression system
T2 sequence (P10826 1-455): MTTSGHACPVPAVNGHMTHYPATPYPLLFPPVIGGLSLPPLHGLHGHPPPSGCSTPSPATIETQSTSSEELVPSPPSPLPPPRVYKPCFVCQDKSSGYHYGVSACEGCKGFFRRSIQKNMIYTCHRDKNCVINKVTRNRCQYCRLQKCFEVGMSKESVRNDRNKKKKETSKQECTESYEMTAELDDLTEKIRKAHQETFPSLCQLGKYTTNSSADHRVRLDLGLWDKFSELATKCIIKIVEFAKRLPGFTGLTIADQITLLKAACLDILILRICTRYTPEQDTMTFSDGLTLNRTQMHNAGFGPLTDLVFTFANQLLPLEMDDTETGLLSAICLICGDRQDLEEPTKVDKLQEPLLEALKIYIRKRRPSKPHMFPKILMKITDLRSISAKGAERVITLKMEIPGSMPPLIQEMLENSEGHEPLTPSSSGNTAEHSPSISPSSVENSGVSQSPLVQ
T2 sequence (P19793 1-462 partner): T1 sequence (P19793 1-462 partner)
Excerpt: as §1

SMILES | pKi (RARα) | pKi (RARβ)
CN1CCN(C(=O)c2ccc(-n3nc(-c4ccc(C(=O)O)cc4)cc3-c3cc(C(C)(C)C)cc(C(C)(C)C)c3)cc2)CC1 [Example 1, 4-[5-(3,5-Di-tert-butylphenyl)-1-[4-(4-methylpiperazine-1-carbonyl)phenyl]pyrazol-3-yl]benzoic Acid] | < 6.01 | < 5.74
CC(C)(C)c1cc(-c2cc(-c3ccc(C(=O)O)cc3)nn2-c2ccc(C(=O)N3CCOCC3)cc2)cc(C(C)(C)C)n1 [Example 8, 4-[5-(2,6-Di-tert-butyl-4-pyridyl)-1-[4-(morpholine-4-carbonyl)phenyl]pyrazol-3-yl]benzoic acid] | 6.45 | 5.85
CC(C)Sc1cc(-c2cc(-c3ccc(C(=O)O)cc3)nn2-c2ccc(C(=O)N(C)C)cc2)cc(C(C)(C)C)c1 [Example 12, 4-[5-(3-tert-Butyl-5-isopropylsulfanyl-phenyl)-1-[4-(dimethylcarbamoyl)phenyl]pyrazol-3-yl]benzoic Acid] | 6.41 | 6.22
CC(C)(C)c1cc(-c2cc(-c3ccc(C(=O)O)cc3)nn2-c2ccc(S(C)(=O)=O)cc2)cc(C(C)(C)C)c1 [Example 19, 4-[5-(3,5-Di-tert-butylphenyl)-1-(4-methylsulfonylphenyl)pyrazol-3-yl]benzoic Acid] | 6.55 | 6.08
